Test results taken from ChEMBL document CHEMBL1201861, “Genomics of Drug Sensitity in Cancer screening data, Wellcome Trust Sanger Institute”.
Structures can show the parent of a compound that is named as a salt.

Tests used:
Ca-Ski = test: cells; format: functional, cell-based, Homo sapiens; settings: Homo sapiens, Ca-Ski;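 note: cell viability assay measuring inhibition of Ca-Ski cell growth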
Description: SANGER: Inhibition of human Ca-Ski cell growth in a cell viability assay.

DMS-153 = test: cells; format: functional, cell-based, Homo sapiens; settings: Homo sapiens, DMS-153
Description: SANGER: Inhibition of human DMS-153 cell growth in a cell viability assay.

Daudi = test: cells; format: functional, cell-based, Homo sapiens; settings: Homo sapiens, Daudi;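 note: growth inhibition of Daudi cells, read out by a viability assay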
Description: SANGER: Inhibition of human Daudi cell growth in a cell viability assay.

Detroit 562 = test: cells; format: functional, cell-based, Homo sapiens; settings: Homo sapiens, Detroit 562;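 note: growth inhibition of human Detroit 562 cells, read out by a cell viability assay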
Description: SANGER: Inhibition of human Detroit562 cell growth in a cell viability assay.

EB2 = test: cells; format: functional, cell-based, Homo sapiens; settings: Homo sapiens, EB2;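 note: growth inhibition of EB2 cells, read out with a cell viability assay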
Description: SANGER: Inhibition of human EB2 cell growth in a cell viability assay.

EFO-21 = test: cells; format: functional, cell-based, Homo sapiens; settings: Homo sapiens, EFO-21;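 note: growth inhibition of EFO-21 cells measured with a viability assay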
Description: SANGER: Inhibition of human EFO-21 cell growth in a cell viability assay.

EHEB = test: cells; format: functional, cell-based, Homo sapiens; settings: Homo sapiens, EHEB;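 note: growth inhibition of human EHEB cells, read out with a cell viability assay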
Description: SANGER: Inhibition of human EHEB cell growth in a cell viability assay.

HCC1954 = test: cells; format: functional, cell-based, Homo sapiens; settings: Homo sapiens, HCC1954;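 note: growth inhibition of human HCC1954 cells, read out with a cell viability assay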
Description: SANGER: Inhibition of human HCC1954 cell growth in a cell viability assay.

HMV-2 cell line = test: cells; format: functional, cell-based, Homo sapiens; settings: Homo sapiens, HMV-2;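 note: growth inhibition of HMV-II cells, read out with a cell viability assay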
Description: SANGER: Inhibition of human HMV-II cell growth in a cell viability assay.

HOP-92 = test: cells; format: functional, cell-based, Homo sapiens; settings: Homo sapiens, HOP-92;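 note: cell viability readout, with IC50 reflecting inhibition of HOP-92 cell growth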
Description: SANGER: Inhibition of human HOP-92 cell growth in a cell viability assay.

HT1197 = test: cells; format: functional, cell-based, Homo sapiens, HT-1197; settings: Homo sapiens, HT1197
Description: SANGER: Inhibition of human HT-1197 cell growth in a cell viability assay.

IGR-1 = test: cells; format: functional, cell-based, Homo sapiens; settings: Homo sapiens, IGR-1;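 note: growth inhibition of human IGR-1 cells, read out with a cell viability assay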
Description: SANGER: Inhibition of human IGR-1 cell growth in a cell viability assay.

KP-N-YN = test: cells; format: functional, cell-based, Homo sapiens; settings: Homo sapiens, KP-N-YN;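 note: growth inhibition of KP-N-YN cells, read out with a cell viability assay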
Description: SANGER: Inhibition of human KP-N-YN cell growth in a cell viability assay.

KYSE-150 cell line = test: cells; format: functional, cell-based, Homo sapiens; settings: Homo sapiens, KYSE-150;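 note: growth inhibition of human KYSE-150 cells, read out with a cell viability assay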
Description: SANGER: Inhibition of human KYSE-150 cell growth in a cell viability assay.

L-540 = test: cells; format: functional, cell-based, Homo sapiens; settings: Homo sapiens, L-540;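 note: growth inhibition of the human L-540 cell line, read out with a viability assay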
Description: SANGER: Inhibition of human L-540 cell growth in a cell viability assay.

LB647-SCLC = test: cells; format: functional, cell-based, Homo sapiens; settings: Homo sapiens, LB647-SCLC;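 note: cell growth inhibition, read out by a viability assay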
Description: SANGER: Inhibition of human LB647-SCLC cell growth in a cell viability assay.

LC-1F = test: cells; format: functional, cell-based, Homo sapiens; settings: Homo sapiens, LC-1F;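 note: growth inhibition of human LC-1F cells, read out with a cell viability assay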
Description: SANGER: Inhibition of human LC-1F cell growth in a cell viability assay.

MDA-MB-415 = test: cells; format: functional, cell-based, Homo sapiens; settings: Homo sapiens, MDA-MB-415
MEL-JUSO = test: cells; format: functional, cell-based, Homo sapiens; settings: Homo sapiens, MEL-JUSO;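 note: growth inhibition of human MEL-JUSO cells, read out with a cell viability assay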
Description: SANGER: Inhibition of human MEL-JUSO cell growth in a cell viability assay.

MKN-7 = test: cells; format: functional, cell-based, Homo sapiens; settings: Homo sapiens, MKN-7;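 note: growth inhibition of MKN-7 cells, read out with a cell viability assay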
Description: SANGER: Inhibition of human MKN7 cell growth in a cell viability assay.

NALM-6 = test: cells; format: functional, cell-based, Homo sapiens; settings: Homo sapiens, NALM-6;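 note: growth inhibition of NALM-6 cells, read out with a cell viability assay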
Description: SANGER: Inhibition of human NALM-6 cell growth in a cell viability assay.

NCI-H1703 = test: cells; format: functional, cell-based, Homo sapiens; settings: Homo sapiens, NCI-H1703;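 note: growth inhibition of NCI-H1703 cells, read out via a cell viability assay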
Description: SANGER: Inhibition of human NCI-H1703 cell growth in a cell viability assay.

NCI-H2030 = test: cells; format: functional, cell-based, Homo sapiens; settings: Homo sapiens, NCI-H2030;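 note: growth inhibition of human NCI-H2030 cells, read out by a cell viability assay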
Description: SANGER: Inhibition of human NCI-H2030 cell growth in a cell viability assay.

NCI-H2170 = test: cells; format: functional, cell-based, Homo sapiens; settings: Homo sapiens, NCI-H2170;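 note: cell viability assay measuring growth inhibition of human NCI-H2170 cancer cells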
Description: SANGER: Inhibition of human NCI-H2170 cell growth in a cell viability assay.

NCI-H2405 = test: cells; format: functional, cell-based, Homo sapiens; settings: Homo sapiens, NCI-H2405;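 note: growth inhibition of the human cell line, read out with a cell viability assay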
Description: SANGER: Inhibition of human NCI-H2405 cell growth in a cell viability assay.

NCI-H2452 = test: cells; format: functional, cell-based, Homo sapiens; settings: Homo sapiens, NCI-H2452;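 note: growth inhibition of NCI-H2452 cells, read out with a cell viability assay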
Description: SANGER: Inhibition of human NCI-H2452 cell growth in a cell viability assay.

NCI-H460 = test: cells; format: functional, cell-based, Homo sapiens; settings: Homo sapiens, NCI-H460;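 note: cell viability assay scoring growth inhibition of human NCI-H460 cells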
Description: SANGER: Inhibition of human NCI-H460 cell growth in a cell viability assay.

NCI-H727 = test: cells; format: functional, cell-based, Homo sapiens; settings: Homo sapiens, NCI-H727;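 note: growth inhibition of human NCI-H727 cells, read out with a cell viability assay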
Description: SANGER: Inhibition of human NCI-H727 cell growth in a cell viability assay.

NY = test: cells; format: functional, cell-based, Homo sapiens; settings: Homo sapiens, NY
Description: SANGER: Inhibition of human NY cell growth in a cell viability assay.

OAW-28 = test: cells; format: functional, cell-based, Homo sapiens; settings: Homo sapiens, OAW-28;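 note: growth inhibition of OAW-28 cells, read out with a cell viability assay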
Description: SANGER: Inhibition of human OAW-28 cell growth in a cell viability assay.

RCM-1 = test: cells; format: functional, cell-based, Homo sapiens; settings: Homo sapiens, RCM-1;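 note: growth inhibition of the RCM-1 line, determined with a cell viability readout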
Description: SANGER: Inhibition of human RCM-1 cell growth in a cell viability assay.

RD = test: cells; format: functional, cell-based, Homo sapiens; settings: Homo sapiens, RD
Description: SANGER: Inhibition of human RD cell growth in a cell viability assay.

REH = test: cells; format: functional, cell-based, Homo sapiens; settings: Homo sapiens, REH;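 note: growth inhibition of REH cells determined with a cell viability read-out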
Description: SANGER: Inhibition of human REH cell growth in a cell viability assay.

RERF-LC-MS = test: cells; format: functional, cell-based, Homo sapiens; settings: Homo sapiens, RERF-LC-MS;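 note: growth inhibition of human RERF-LC-MS cells, read out by a cell viability assay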
Description: SANGER: Inhibition of human RERF-LC-MS cell growth in a cell viability assay.

RPMI-6666 = test: cells; format: functional, cell-based, Homo sapiens; settings: Homo sapiens, RPMI-6666
Description: SANGER: Inhibition of human RPMI-6666 cell growth in a cell viability assay.

SCC-4 = test: cells; format: functional, cell-based, Homo sapiens; settings: Homo sapiens, SCC-4;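 note: growth inhibition of human SCC-4 cells, read out as cell viability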
Description: SANGER: Inhibition of human SCC-4 cell growth in a cell viability assay.

SCC-9 = test: cells; format: functional, cell-based, Homo sapiens; settings: Homo sapiens, SCC-9;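 note: Read-out is a cell viability assay, with values giving inhibition of cell growth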
Description: SANGER: Inhibition of human SCC-9 cell growth in a cell viability assay.

SU-DHL-1 = test: SANGER: Inhibition of human SU-DHL-1 cell growth in a cell viability assay.; format: functional, cell-based; settings: Homo sapiens, SU-DHL-1
SW13 = test: cells; format: functional, cell-based, Homo sapiens; settings: Homo sapiens, SW13;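 note: IC50 is inhibition of SW13 cell growth, read out with a cell viability assay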
Description: SANGER: Inhibition of human SW13 cell growth in a cell viability assay.

SW1417 = test: cells; format: functional, cell-based, Homo sapiens; settings: Homo sapiens, SW1417;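 note: growth inhibition of human SW1417 cells, read out with a cell viability assay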
Description: SANGER: Inhibition of human SW1417 cell growth in a cell viability assay.

SW-620 = test: cells; format: functional, cell-based, Homo sapiens; settings: Homo sapiens, SW-620;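 note: growth inhibition of human SW-620 cells, measured by a cell viability assay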
Description: SANGER: Inhibition of human SW620 cell growth in a cell viability assay.

SAOS-2 = test: cells; format: functional, cell-based, Homo sapiens; settings: Homo sapiens, SAOS-2;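 note: growth inhibition of human Saos-2 cells determined by a cell viability assay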
Description: SANGER: Inhibition of human Saos-2 cell growth in a cell viability assay.

ACHN = test: cells; format: functional, cell-based, Homo sapiens; settings: Homo sapiens, ACHN;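 note: cell viability read-out used to gauge how strongly growth of human ACHN cells is suppressed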
Description: SANGER: Inhibition of human ACHN cell growth in a cell viability assay.

BHT-101 = test: cells; format: functional, cell-based, Homo sapiens; settings: Homo sapiens, BHT-101
Description: SANGER: Inhibition of human BHT-101 cell growth in a cell viability assay.

BPH-1 = test: cells; format: functional, cell-based, Homo sapiens; settings: Homo sapiens, BPH-1;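 note: cell viability assay measuring growth inhibition of human BPH-1 cells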
Description: SANGER: Inhibition of human BPH-1 cell growth in a cell viability assay.

C3A = test: cells; format: functional, cell-based, Homo sapiens; settings: Homo sapiens, C3A;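 note: growth inhibition of C3A human cells, quantified with a cell viability readout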
Description: SANGER: Inhibition of human C3A cell growth in a cell viability assay.

CAKI-1 = test: cells; format: functional, cell-based, Homo sapiens; settings: Homo sapiens, CAKI-1;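 note: growth inhibition of CAKI-1 cells, measured by a cell viability assay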
Description: SANGER: Inhibition of human CAKI-1 cell growth in a cell viability assay.

CCC/C=C/C=C/C(=O)O[C@H]1/C(=C/C(=O)OC)C[C@H]2C[C@H]([C@@H](C)O)OC(=O)C[C@H](O)C[C@@H]3C[C@H](OC(C)=O)C(C)(C)[C@](O)(C[C@@H]4C/C(=C/C(=O)OC)C[C@H](/C=C/C(C)(C)[C@]1(O)O2)O4)O3 [BRYOSTATIN 1]
IC50 (Ca-Ski): > 8 nM
IC50 (DMS-153): > 8 nM
IC50 (Daudi): > 8 nM
IC50 (Detroit 562): > 8 nM
IC50 (EB2): > 8 nM
IC50 (EFO-21): > 8 nM
IC50 (EHEB): > 8 nM
IC50 (HCC1954): > 0.008 µM
IC50 (HMV-2 cell line): 2.26 nM
IC50 (HOP-92): > 8 nM
IC50 (HT1197): > 8 nM
IC50 (IGR-1): > 8 nM
IC50 (KP-N-YN): > 0.008 µM
IC50 (KYSE-150 cell line): > 8 nM
IC50 (L-540): > 8 nM
IC50 (LB647-SCLC): > 0.008 µM
IC50 (LC-1F): > 0.008 µM
IC50 (MDA-MB-415): > 8 nM
IC50 (MEL-JUSO): > 8 nM
IC50 (MKN-7): > 8 nM
IC50 (NALM-6): > 8 nM
IC50 (NCI-H1703): > 8 nM
IC50 (NCI-H2030): > 8 nM
IC50 (NCI-H2170): > 8 nM
IC50 (NCI-H2405): > 8 nM
IC50 (NCI-H2452): > 0.008 µM
IC50 (NCI-H460): > 8 nM
IC50 (NCI-H727): > 8 nM
IC50 (NY): > 8 nM
IC50 (OAW-28): > 8 nM
IC50 (RCM-1): > 8 nM
IC50 (RD): > 8 nM
IC50 (REH): > 8 nM
IC50 (RERF-LC-MS): > 8 nM
IC50 (RPMI-6666): > 8 nM
IC50 (SCC-4): > 8 nM
IC50 (SCC-9): > 8 nM
IC50 (SU-DHL-1): > 8 nM
IC50 (SW13): > 8 nM
IC50 (SW1417): > 8 nM
IC50 (SW-620): > 8 nM
IC50 (SAOS-2): > 8 nM
IC50 (ACHN): > 8 nM
IC50 (BHT-101): > 8 nM
IC50 (BPH-1): 6.03 nM
IC50 (C3A): > 8 nM
IC50 (CAKI-1): > 8 nM

COC1=CC(c2cc3ccccc3[nH]2)=N/C1=C\c1[nH]c(C)cc1C [OBATOCLAX MESYLATE]
IC50 (Ca-Ski): 405 nM
IC50 (DMS-153): 2170 nM
IC50 (Daudi): 70.8 nM
IC50 (Detroit 562): 489 nM
IC50 (EB2): < 62.5 nM
IC50 (EFO-21): 841 nM
IC50 (EHEB): 823 nM
IC50 (HCC1954): 5.86 µM
IC50 (HMV-2 cell line): 52.4 nM
IC50 (HOP-92): 368 nM
IC50 (HT1197): 395 nM
IC50 (IGR-1): < 62.5 nM
IC50 (KP-N-YN): > 16 µM
IC50 (KYSE-150 cell line): 40.1 nM
IC50 (L-540): 216 nM
IC50 (LB647-SCLC): 15.7 µM
IC50 (LC-1F): 3.72 µM
IC50 (MDA-MB-415): 2180 nM
IC50 (MEL-JUSO): 24.7 nM
IC50 (MKN-7): 1890 nM
IC50 (NALM-6): < 62.5 nM
IC50 (NCI-H1703): 594 nM
IC50 (NCI-H2030): 227 nM
IC50 (NCI-H2170): 683 nM
IC50 (NCI-H2405): 347 nM
IC50 (NCI-H2452): > 16 µM
IC50 (NCI-H460): 101 nM
IC50 (NCI-H727): 80.5 nM
IC50 (NY): 118 nM
IC50 (OAW-28): 202 nM
IC50 (RCM-1): 572 nM
IC50 (RD): 140 nM
IC50 (REH): 46.4 nM
IC50 (RERF-LC-MS): 1060 nM
IC50 (RPMI-6666): 89.7 nM
IC50 (SCC-4): 2140 nM
IC50 (SCC-9): 1240 nM
IC50 (SU-DHL-1): 1250 nM
IC50 (SW13): 406 nM
IC50 (SW1417): < 62.5 nM
IC50 (SW-620): < 62.5 nM
IC50 (SAOS-2): 246 nM
IC50 (ACHN): 132 nM
IC50 (BHT-101): < 62.5 nM
IC50 (BPH-1): 563 nM
IC50 (C3A): 374 nM
IC50 (CAKI-1): 1720 nM
